Measurements published in paper PMC10223356, “Tetrasubstituted Pyrrole Derivative Mimetics of Protein–Protein Interaction Hot-Spot Residues: A Promising Class of Anticancer Agents Targeting Melanoma Cells” (Molecules, 2023).
In brackets after ≈: the same amount, converted by molar mass.

Assays:
[1] = tested on: human colorectal carcinoma HCT-116 cells; assay: Cell survival index (MTT + cell count) bioscreen, HCT-116; type: cell-based; settings: HCT-116, 48 h, human colon cancer cell line, 48 h of incubation, mean ± SEM (n = 30)
Procedure: (§1) Cell growth inhibition activity of compounds 1, 9a–i, 10a,b, and the positive control nutlin-3a was evaluated following 48 h of incubation with increasing concentrations of the compounds (from 1.5 to 25 µM) in human cancer (A375 and HCT-116) and healthy (L6) cell lines. […] The evaluation of the “cell survival index” show a typical concentration-dependent sigmoid trend, achieving IC50 values in the low micromolar range (Figure S2).
(§2) Human epithelial melanoma A375 cells, human colorectal carcinoma HCT-116 cells, and normal rat L6 myoblast were grown in DMEM (Invitrogen, Paisley, UK) supplemented with 10% fetal bovine serum (FBS, Cambrex, Verviers, Belgium), L-glutamine (2 mM, Sigma, Milan, Italy), penicillin (100 units/mL, Sigma), and streptomycin (100 μg/mL, Sigma) and cultured in a humidified 5% carbon dioxide atmosphere at 37 °C, according to ATCC recommendations. A375 and HCT-116 were used as preclinical human cancer models in vitro, while rat L6 were used as control healthy cells.
(§3) The antiproliferative activity of 1, 9a–i, and 10a,b was investigated through the estimation of a “cell survival index”, arising from the combination of cell viability evaluation with cell counting, as previously reported. The cell survival index is calculated as the arithmetic mean between the percentage values derived from the MTT assay and the automated cell count. Cells were inoculated in 96-microwell culture plates at a density of 10^4 cells/well and allowed to grow for 24 h. The medium was then replaced with fresh medium and cells were treated for an additional 48 h with a range of concentrations (from 1.5 to 25 μM) of 1, 9a–i, and 10a,b. Using the same experimental procedure, cell cultures were also incubated with DMSO as negative controls (vehicle), as well as with cisplatin (cDDP) and nutlin-3a as positive controls for cytotoxic and antiproliferative effects, respectively. Cell viability was evaluated using the MTT assay procedure. Cell number was determined by TC20 automated cell counter (Bio-Rad, Milan, Italy), providing an accurate and reproducible total count of cells and a live/dead ratio in one step by a specific dye (trypan blue) exclusion assay. The calculation of the concentration required to inhibit the net increase in the cell number and viability by 50% (IC50) is based on plots of data (n = 6 for each experiment) and repeated five times (total n = 30). IC50 values were calculated from a dose–response curve by nonlinear regression using a curve-fitting program, GraphPad Prism 5.0, and are expressed as mean values ± SEM (n = 30) of five independent experiments.

[2] = tested on: human epithelial melanoma A375 cells; assay: Cell survival index (MTT + cell count) bioscreen, A375; type: cell-based
Procedure: as §1, §2, §3

normal rat L6 myoblast = assay: Cell survival index (MTT + cell count) bioscreen, L6; type: cell-based; settings: healthy rat myoblast cell line, 48 h of incubation, mean ± SEM (n = 30), read-out: L6 IC50
Procedure: as §1, §2, §3

[3] = design: method as in PMID 23879262; settings: 20 mM of PBS (pH = 7.4) containing 150 mM of KCl; cited from earlier work
[4] = Solubility assay in PBS by UV light scattering (precipitation point); type: physicochemical; settings: PBS (phosphate-buffered saline), aqueous buffer, kinetic from dmso stock; PBS solution pH = 7.4, 37 °C, mean ± SEM (n = 3)
Procedure: The solubility of all compounds was evaluated in a PBS solution (phosphate-buffered saline; Sigma-Aldrich, Merck KGaA, Darmstadt, Germany, pH = 7.4) by means of UV spectroscopy.
For each compound, the precipitation point was quantified measuring the increasing of the UV absorption of PBS in the range of 600–800 nm after successive additions of aliquots of a DMSO solution at specific concentration. Because of the absence of bands in the selected UV region, the increase in absorption is due to light scattering caused by the formation of particulate in the PBS. UV absorption data were graphically reported vs. μL of the added DMSO solution (x-axis), and the precipitation point was identified as the intersect point of the bilinear fitted curve. The x coordinate of the intersect point corresponded to the microlitres of DMSO added to PBS (1.4 mL) when the precipitation occurred, from which the concentration of the molecule in PBS at the precipitation point is readily calculated.
The solubility of each molecule in PBS was quantified measuring the UV scattering in the range of 600–800 nm (JASCO UV-530 spectrophotometer, equipped with ETC-505 T temperature controller). DMSO solutions of 1, 9a, 9b, 9c, 9d, 9e, 9f, ±10b, and nutlin-3a were used at a final concentration of 2.6 mM, whereas those of 9g, 9h, and 9i were used at 1.0 mM. A total of 1400 µL of degassed PBS was placed in a quartz cuvette (o.l. 0.5 cm), equilibrated 5 min at 37 °C, and then titrated by 7–10 successive additions of 0.5 µL or 0.3 µL from the DMSO solution. Each titration was performed without removing the cuvette from the UV cell and, after each addition, the solution was equilibrated 1 min a 37 °C under gently stirring before the acquisition of the UV data. For each molecule, the solubility was expressed as the mean ± SEM (n = 3).

**Q.** Which IC50 [1] does the source give for Cc1ccc(Cn2c(C(=O)NCc3cccc(Cl)c3)cc(C(=O)c3ccccc3)c2C)cc1 [compound 1, 4-benzoyl-N-[(3-chlorophenyl)methyl]-5-methyl-1-[(4-methylphenyl)methyl]-1H-pyrrole-2-carboxamide] here?
**A.** Its IC50 is 41.4 ± 6 µM.

**Q.** What about the IC50 ([2]; A-375, human melanoma cell line, 48 h of incubation, cell survival index, mean ± SEM (n = 30)) of the same compound?
**A.** Its IC50 is 20 ± 4 µM.

**Q.** And the “SI (selectivity index)” value ([2]; SI = IC50 L6/IC50 A375)?
**A.** Its value is 2.1.

**Q.** What about the CC50 (normal rat L6 myoblast) of the same compound?
**A.** Its CC50 is 42 ± 3 µM.

**Q.** What about the Solubility [3] of the same compound?
**A.** Its Solubility is at most 6.8 µM.

**Q.** What about the solubility at 1 min [4] of the same compound?
**A.** The solubility at 1 min was 3.5 ± 0.1 µM (≈ 1.6 µg/mL).
